Reference: patent US20110077248A1, “IMIDAZOPYRIDINE AND RELATED ANALOGS AS SIRTUIN MODULATORS” (Sirtris Pharmaceuticals, Inc., priority 2008, published 2011)

Molecular target: T1, SIRT1 (Homo sapiens, UniProt Q96EB6)
T1 construct: His-tag (N); made in house; host or cells: E. coli BL21(DE3), T7-promoter vector
T1 sequence (Q96EB6 1-747): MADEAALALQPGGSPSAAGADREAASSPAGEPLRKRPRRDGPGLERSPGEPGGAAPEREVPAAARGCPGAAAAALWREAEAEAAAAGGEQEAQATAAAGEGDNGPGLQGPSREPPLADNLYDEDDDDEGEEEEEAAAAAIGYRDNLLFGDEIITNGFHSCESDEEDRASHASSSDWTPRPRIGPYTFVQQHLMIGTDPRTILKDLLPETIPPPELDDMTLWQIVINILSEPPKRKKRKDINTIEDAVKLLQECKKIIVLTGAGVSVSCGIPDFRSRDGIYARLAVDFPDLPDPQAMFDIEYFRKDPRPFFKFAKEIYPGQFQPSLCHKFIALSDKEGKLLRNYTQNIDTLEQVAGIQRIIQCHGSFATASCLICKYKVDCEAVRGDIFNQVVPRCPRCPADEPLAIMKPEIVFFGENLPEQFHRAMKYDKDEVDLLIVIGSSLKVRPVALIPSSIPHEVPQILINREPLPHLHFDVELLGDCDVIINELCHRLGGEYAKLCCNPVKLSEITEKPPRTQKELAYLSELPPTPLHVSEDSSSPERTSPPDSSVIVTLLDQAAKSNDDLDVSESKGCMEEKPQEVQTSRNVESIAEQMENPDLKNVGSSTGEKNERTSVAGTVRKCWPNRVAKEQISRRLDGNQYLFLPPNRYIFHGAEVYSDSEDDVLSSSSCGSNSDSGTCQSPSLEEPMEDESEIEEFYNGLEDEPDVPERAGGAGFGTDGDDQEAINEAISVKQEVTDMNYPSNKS
Assay: Mass spectrometry based assay for modulators of SIRT1 activity (deacetylation of p53-based acetylated peptide)
Assay type: biochemical
Settings: for EC1.5: concentration of test compound that results in 150% activation of SIRT1, 0.5 μM peptide substrate, 120 μM βNAD+, 10 nM SIRT1, 25 min, 25° C.; for Emax: percent maximum fold activation of SIRT1
Description: A mass spectrometry based assay was used to identify modulators of SIRT1 activity. The mass spectrometry based assay utilizes a peptide having 20 amino acid residues as follows: Ac-EE-K(biotin)-GQSTSSHSK(Ac)NleSTEG-K(5TMRi)-EE-NH2 (SEQ ID NO: 1) wherein K(Ac) is an acetylated lysine residue and Nle is a norleucine. The peptide is labeled with the fluorophore 5TMR (excitation 540 nm/emission 580 nm) at the C-terminus. The sequence of the peptide substrate is based on p53 with several modifications. In addition, the methionine residue naturally present in the sequence was replaced with the norleucine because the methionine may be susceptible to oxidation during synthesis and purification.
The mass spectrometry assay is conducted as follows: 0.5 μM peptide substrate and 120 μM βNAD+ is incubated with 10 nM SIRT1 for 25 minutes at 25° C. in a reaction buffer (50 mM Tris-acetate pH 8, 137 mM NaCl, 2.7 mM KCl, 1 mM MgCl2, 5 mM DTT, 0.05% BSA). Test compounds may be added to the reaction as described above. The SirT1 gene is cloned into a T7-promoter containing vector and transformed into BL21(DE3). After the 25 minute incubation with SIRT1, 10 μL of 10% formic acid is added to stop the reaction. Reactions are sealed and frozen for later mass spec analysis. Determination of the mass of the substrate peptide allows for precise determination of the degree of acetylation (i.e. starting material) as compared to deacetylated peptide (product).
A control for inhibition of sirtuin activity is conducted by adding 1 μL of 500 mM nicotinamide as a negative control at the start of the reaction (e.g., permits determination of maximum sirtuin inhibition). A control for activation of sirtuin activity is conducted using 10 nM of sirtuin protein, with 1 μL of DMSO in place of compound, to determinine the amount of deacetylation of the substrate at a given timepoint within the linear range of the assay. This timepoint is the same as that used for test compounds and, within the linear range, the endpoint represents a change in velocity.
For the above assay, SIRT1 protein was expressed and purified as follows. The SirT1 gene was cloned into a T7-promoter containing vector and transformed into BL21(DE3). The protein was expressed by induction with 1 mM IPTG as an N-terminal His-tag fusion protein at 18° C. overnight and harvested at 30,000×g. Cells were lysed with lysozyme in lysis buffer (50 mM Tris-HCl, 2 mM Tris[2-carboxyethyl]phosphine (TCEP), 10 μM ZnCl2, 200 mM NaCl) and further treated with sonication for 10 min for complete lysis. The protein was purified over a Ni-NTA column (Amersham) and fractions containing pure protein were pooled, concentrated and run over a sizing column (Sephadex S200 26/60 global). The peak containing soluble protein was collected and run on an Ion-exchange column (MonoQ). Gradient elution (200 mM-500 mM NaCl) yielded pure protein. This protein was concentrated and dialyzed against dialysis buffer (20 mM Tris-HCl, 2 mM TCEP) overnight. The protein was aliquoted and frozen at −80° C. until further use.
Sirtuin modulating compounds that activated SIRT1 were identified using the assay described above and are shown below in Table 1. The EC1.5 values represent the concentration of test compounds that result in 150% activation of SIRT1. The EC1.5 values for the activating compounds are represented by A (EC1.5<1.0 uM), B (EC1.5 1-25 uM), C (EC1.5>25 uM). The percent maximum fold activation is represented by A (Fold activation >200%) or B (Fold Activation <200%). “NT” indicates the compound was not tested in a particular assay.

Row | SMILES | EC1.5 | Emax [%]
1 | O=C(Nc1nc(CN2CCOCC2)cs1)c1cccn2cc(-c3cc(F)ccc3F)nc12 [Compound 200] | A (EC1.5<1.0 uM) | > 200
2 | O=C(Nc1cnccn1)c1nccn2cc(-c3ccc(F)cc3C(F)(F)F)nc12 [Compound 247] | B (EC1.5 1-25 uM) | > 200
3 | O=C(Nc1ncc(CN2CCCC2)s1)c1cccn2cc(-c3ccc(F)cc3C(F)(F)F)nc12 [Compound 146] | B (EC1.5 1-25 uM) | > 200
4 | Cc1cc(-c2nc3c(C(=O)Nc4nccs4)cccn3n2)ccn1 [Compound 214, 2-(2-methylpyridin-4-yl)-N-(thiazol-2-yl)-[1,2,4]triazolo[1,5-a]pyridine-8-carboxamide] | B (EC1.5 1-25 uM) | > 200
5 | O=C(Nc1cccc(OCC(O)CO)c1)c1cccn2cc(-c3cccc(OC(F)(F)F)c3)nc12 (stereo not shown) [Compound 136] | B (EC1.5 1-25 uM) | > 200
6 | Cc1ccc(-c2nc3c(C(=O)Nc4nc(CN5CCOCC5)cs4)cccn3n2)cn1 [Compound 212] | B (EC1.5 1-25 uM) | < 200
7 | O=C(Nc1cccn2cc(-c3cccc(C(F)(F)F)c3)nc12)c1cscn1 [Compound 117] | B (EC1.5 1-25 uM) | < 200
8 | O=C(Nc1nc(CN2CCOCC2)cs1)c1cccn2cc(-c3cc(F)c(F)c(F)c3)nc12 [Compound 196] | B (EC1.5 1-25 uM) | < 200
9 | O=C(Nc1nc(CN2CCOCC2)cs1)c1cccn2cc(-c3cccc(C(F)(F)F)c3)nc12 [Compound 132, N-(4-(morpholinomethyl)thiazol-2-yl)-2-(3-(trifluoromethyl)phenyl)imidazo[1,2-a]pyridine-8-carboxamide] | A (EC1.5<1.0 uM) | > 200
10 | O=C(Nc1cccc(CN2CCOCC2)n1)c1cccn2cc(-c3cc(F)c(F)c(F)c3)nc12 [Compound 197] | B (EC1.5 1-25 uM) | > 200
11 | O=C(Nc1nc(CN2CCOCC2)cs1)c1nccn2cc(-c3ccccc3C(F)(F)F)nc12 [Compound 258] | A (EC1.5<1.0 uM) | > 200
12 | Cc1ncccc1-c1nc2c(C(=O)Nc3cccc(CN4CCOCC4)n3)cccn2n1 [Compound 242] | B (EC1.5 1-25 uM) | > 200
13 | O=C(NC1CCCC1)c1cccn2cc(-c3cccc(OC(F)(F)F)c3)nc12 [Compound 114] | C (EC1.5>25 uM) | < 200
14 | O=C(Nc1nc(CN2CCOCC2)cs1)c1cccn2cc(-c3cccc(Cl)c3)nc12 [Compound 233] | A (EC1.5<1.0 uM) | > 200
15 | O=C(Nc1nccs1)c1nccn2cc(-c3cccc(OC(F)(F)F)c3)nc12 [Compound 142] | C (EC1.5>25 uM) | < 200
16 | O=C(Nc1nccs1)c1cccn2nc(-c3cc(Cl)ccc3C(F)(F)F)nc12 [Compound 223] | B (EC1.5 1-25 uM) | < 200
17 | O=C(Nc1ccccn1)c1cccn2nc(-c3cccc(N4CCOCC4)c3)nc12 [Compound 182] | B (EC1.5 1-25 uM) | < 200
18 | O=C(Nc1nc(CN2CCOCC2)cs1)c1cccn2cc(-c3ccc(F)cc3F)nc12 [Compound 198] | A (EC1.5<1.0 uM) | < 200
19 | O=C(Nc1nccs1)c1nccn2cc(-c3ccc(F)cc3C(F)(F)F)nc12 [Compound 188] | B (EC1.5 1-25 uM) | > 200
20 | O=C(Nc1cccn2cc(-c3cccc(C(F)(F)F)c3)nc12)c1cnccn1 [Compound 111] | B (EC1.5 1-25 uM) | < 200
21 | O=C(Nc1nc(CN2CCOCC2)cs1)c1cccn2cc(-c3ccc(F)cc3C(F)(F)F)nc12 [Compound 237] | A (EC1.5<1.0 uM) | > 200
22 | O=C(Nc1nccs1)c1cccn2nc(-c3cccc(N4CCOCC4)c3)nc12 [Compound 181] | B (EC1.5 1-25 uM) | < 200
23 | O=C(Nc1cccc(CN2CCOCC2)n1)c1cccn2cc(-c3cccc(C(F)F)c3)nc12 [Compound 209] | A (EC1.5<1.0 uM) | > 200

Results, then the compound that gave them:

Row | EC1.5 | Emax [%] | SMILES
24 | C (EC1.5>25 uM) | < 200 | O=C(Nc1ccccc1)c1cccn2cc(-c3ccccc3)nc12 [Compound 108]
25 | A (EC1.5<1.0 uM) | > 200 | O=C(Nc1cccc(CN2CCOCC2)n1)c1cccn2cc(-c3cccc(Cl)c3)nc12 [Compound 234]
26 | C (EC1.5>25 uM) | < 200 | O=C(Nc1nccs1)c1cccn2cc(-c3ccccc3F)nc12 [Compound 152]
27 | B (EC1.5 1-25 uM) | > 200 | O=C(Nc1ccccn1)c1cccn2nc(-c3ccccc3OC(F)F)nc12 [Compound 226]
28 | C (EC1.5>25 uM) | < 200 | O=C(Nc1ccccn1)c1nccn2cc(-c3ccc(N4CCCC4)cc3)nc12 [Compound 169]
29 | C (EC1.5>25 uM) | < 200 | O=C(Nc1ccccn1)c1nccn2cc(-c3cccc(OC(F)(F)F)c3)nc12 [Compound 143]
30 | A (EC1.5<1.0 uM) | > 200 | Cc1ccc(NC(=O)c2cccn3cc(-c4ccc(F)cc4C(F)(F)F)nc23)cc1 [Compound 141]
31 | C (EC1.5>25 uM) | < 200 | O=C(Nc1nccs1)c1cccn2cc(-c3ccc(C(F)F)cc3)nc12 [Compound 202, 2-(4-(difluoromethyl)phenyl)-N-(thiazol-2-yl)imidazo[1,2-a]pyridine-8-carboxamide]
32 | B (EC1.5 1-25 uM) | > 200 | Cc1cc(-c2nc3c(C(=O)Nc4ccccn4)cccn3n2)ccn1 [Compound 215]
33 | A (EC1.5<1.0 uM) | < 200 | O=C(Nc1ccccn1)c1cccn2cc(-c3cccc(C(F)F)c3)nc12 [Compound 207]
34 | C (EC1.5>25 uM) | < 200 | O=C(Nc1ccccn1)c1cccn2cc(-c3ccc(C(F)(F)F)cc3)nc12 [Compound 151]
35 | B (EC1.5 1-25 uM) | > 200 | O=C(Nc1ccccn1)c1nccn2cc(-c3ccc(F)cc3C(F)(F)F)nc12 [Compound 189]
36 | B (EC1.5 1-25 uM) | < 200 | O=C(Nc1ccccn1)c1cccn2cc(-c3ccc(F)cc3)nc12 [Compound 157]
37 | B (EC1.5 1-25 uM) | > 200 | O=C(Nc1ccccn1)c1cccn2cc(-c3ccccc3C(F)(F)F)nc12 [Compound 149]
38 | C (EC1.5>25 uM) | < 200 | O=C(Nc1nccs1)c1cccn2cc(-c3cccc(F)c3)nc12 [Compound 154]
